Assay results from PMC4779142, “The fully synthetic MAG-Tn3 therapeutic vaccine containing the tetanus toxoid-derived TT830-844 universal epitope provides anti-tumor immunity” (Cancer Immunology, Immunotherapy : CII, 2016).

Tested on: CD4+ T cells from C3H/HeN lymph nodes
Format: cell-based, mouse
Conditions: n = 5, sc 50 μg peptide with CFA, day 11, 50 μg/mL peptide in vitro

Which “TNF-α, IL-2 and IFN-γ production by CD4+ T cells on in vitro stimulation with the peptide” value does the source give for “RNTDGSTDYGILQINSR [HEL, H-2k-restricted HEL45-61 peptide derived from hen egg lysozyme ([…])]” here?
Its value is “able to produce TNF-α, IL-2 and IFN-γ”.
